Source: patent EP0422134B1, “5-HT SELECTIVE AGENTS” (ABBOTT LABORATORIES, priority 1988, dated 1990)
Structures can show the parent of a compound that is named as a salt.

Key:
[1] = molecular target: 5-HT1; experiment: Radioligand binding, tritiated 5-HT, rat frontal cortex homogenate (total 5-HT1); conditions: displacement of tritiated 5-HT
Method: Male Sprague-Dawley rats (150-200 g) were sacrificed and the brains were rapidly removed and placed on ice. The frontal cortext, including the portion immediately above the striatum and part of the parietal cortex were dissected. Tissues from 6-10 rats were pooled and homogenized in at least 40 volumes of tris-HCI buffer (0.05 M, pH 7.4) using a Brinkman Polytron (setting 5 for 20 seconds). This homogenate was centrifuged (48,000 G for 10 minutes), the pellet resuspended, and the process repeated three more times. Between the second and third washes, the tissue homogenate was incubated for 10 minutes at 37°C. The final pellet was resuspended in 100 volumes of TRIS buffer for use in the binding assay.
Radioligand binding affinity for subtypes of the serotonin receptor was determined by the method of Pedigo, Yamamura, and Nelson, op. cit. Tissue homogenate (0.5 mL) from rat frontal cortex, together with various concentrations of tritiated 5-HT and test compounds were added to glass tubes containing modified tris-HCI buffer to obtain, in each case, a final volume of 2 mL and having the following compositions: 5.7 mM ascorbate, 10 micromolar pargyline, 4mM CaCl2, 50 mM TRIS buffer; pH 7.4 at 37°C.
Each mixture was incubated for 15 minutes at 37°C and then vacuum filtered through Whatman GF/B filters followed by three 5 mL washes with cold TRIS buffer. Radioactivity was extracted overnight in 3 mL of scintillation liquid and measured by liquid scintillation spectrometry (50% efficiency).
Binding parameters for saturation and drug displacement studies were calculated by Scatchard analysis and from Hill plots, respectively.

[2] = test system: spontaneously hypertensive (SH) rat; experiment: Blood pressure in spontaneously hypertensive rats (tail cuff), oral dosing; format: in vivo; conditions: % change in blood pressure
Method: In another study, a group of spontaneously hypertensive male rats were trained to be restrained in a wire mesh cylinder in a warming box, at least two training cycles being conducted before testing. The rats were warmed for about one-hour prior to blood pressure measurement, the warming box being maintained at a constant temperature of 36°C. An occluding cuff attached to a programmed sphygmomanometer was placed near the base of the tail of each rat and the pressure of the cuff was increased automatically from 0 to 250 millimeters of mercury at a rate of 10 mm Hg pressure per second. The total time for each cycle of inflation and deflation of the cuff was 50 seconds and the interval between cycles was one minute A photocell, placed distally to the cuff, recorded the pulses due to the forward motion of blood flow with each heart beat. As the pressure in the cuff increased, the pulse disappeared completely at the point where the cuff pressure equalled and exceeded the arterial blood pressure. The pulse reappeared during deflation at approximately the same pressure. Five interference free signals were recorded for each rat. Rats with a blood pressure of 180 mm Hg or more during the control period were used in the study.
Blood pressure and heart rate readings were recorded on a Model VII Grass polygraph at various intervals after administration of the test compound. […] For the in vivo test data, SHR refers to spontaneously hypertensive rats, dosed in milligrams per kilogram (mpk), with the data being expressed in the Table in +% changes at a particular dosage range.

Row | SMILES | IC50 [1] [nM] | In Vivo Data SHR (mpk, p.o. dose) ([2]; 30 mg/kg p.o.) | In Vivo Data SHR (mpk, p.o. dose) ([2]; 10 mg/kg p.o.)
1 | O=C1CC2(CCCC2)CC(=O)N1CCCCN1CC2Cc3ccc(Cl)c(O)c3C2C1 (centres unmarked) [Example 52, 2-(4-(3,3-Tetramethylene)glutarimidyl)butyl-5-chloro-4-hydroxy-1,2,3,3a,8,8a-hexahydroindeno[1,2-c]-pyrrole hydrobromide] | 1840 | -23% at 30 mg/kg | 
2 | COc1cccc2c1C1CCN(CCCCN3C(=O)CC4(CCCC4)CC3=O)CC1C2 (centres unmarked) [Example 44, hydrochloride] | 505 |  | 
3 | COc1cccc2c1[C@H]1CCN(CCCN3C(=O)CC4(CCCC4)CC3=O)C[C@@H]1C2 (relative stereo) [Example 50, trans-2-(3-(3,3-tetramethylene)glutarimidyl)propyl-5-methoxy-2,3,4,4a,9,9a-hexahydro-1 H-indeno [2,1-c]pyridine hydrochloride] | 279 |  | 
4 | COc1cccc2c1C1CN(CCCCCN3C(=O)CC4(CCCC4)CC3=O)CC1C2 (centres unmarked) [Example 28, 2-(5-(3,3-tetramethylene)glutarimidyl)pentyl-4-methoxy-1,2,3,3a,8,8a-hexahydroindeno[1,2-c]pyrrole hydrochloride] | 722 |  | 
5 | COc1cccc2c1[C@H]1CCN(CCCCN3C(=O)CC4(CCCC4)CC3=O)C[C@@H]1C2 (relative stereo) [Example 51, trans-2-(4-(3,3-tetramethylene)glutarimidyl)butyl-5-methoxy-2,3,4,4a,9,9a-hexahydro-1H-indeno [2,1-c] pyridine hydrochloride] | 60 | -36% at 30 mg/kg | 
6 | COc1cccc2c1C1CN(CCCCN3C(=O)c4ccccc4C3=O)CC1C2 (centres unmarked) [Example 24, 4-Methoxy-2-(4-(2-phthalimido)butyl)-1,2,3,3a,8,8a-hexahydroindeno[1,2-c]pyrrole hydrochloride] | 404 |  | 
7 | COc1cccc2c1[C@H]1CCN(CCCCN3C(=O)c4ccccc4S3(=O)=O)C[C@@H]1C2 (relative stereo) [Example 57, trans-2(4-(2-(1,2-benzisothiazolin-3-one-1,1-dioxyde))butyl)-5-methoxy-2,3,4,4a,9,9a-hexahydro-1H-indeno[2,1-c]pyridine hydrochloride] | 26 | -17% at 30 mg/kg | 
8 | COc1cccc2c1C1CN(CCCN3C(=O)CC4(CCCC4)CC3=O)CC1C2 (centres unmarked) [Example 26, 2-(3-(3,3-tetramethylene)glutarimidyl)propyl-4-methoxy-1,2,3,3a,8,8a-hexahydroindeno[1,2-c]pyrrole hydrochloride] | 3300 | -23% at 30 mg/kg | 
9 | COc1cccc2c1C1CN(C/C=C/CN3C(=O)CC4(CCCC4)CC3=O)CC1C2 (stereo not drawn) [Example 30, 2-(4-(3,3-tetramethylene)glutarimidyl)-trans-but-2-enyl-4-methoxy-1,2,3,3a,8,8a-hexahydroindeno [1,2-c]pyrrole hydrochloride] | 533 | -11% at 30 mg/kg | 
10 | COc1c(Cl)ccc2c1C1CN(CCCCN3C(=O)CC4(CCCC4)CC3=O)CC1C2 (centres unmarked) [Example 8, 2-(4-(3,3-tetramethylene)glutarimidyl)butyl-5-chroro-4-methoxy-1,2,3,3a,8,8a-hexahydroindeno[1,2-c] pyrrole hydrochloride] | 714 | -37% at 30 mg/kg | 
11 | COc1cccc2c1C1CN(C[C@H]3COc4ccccc4O3)CC1C2 (stereo partly drawn) [Example 31, 2S-(1,4-benzodioxanyl-2-methyl)-4-methoxy-1,2,3,3a,8,8a-hexahydroindeno[1,2-c]pyrrole hydrochloride] | 457 |  | 
12 | COc1cccc2c1C1CN(C[C@@H]3COc4ccccc4O3)CC1C2 (stereo partly drawn) [Example 32, 2R-(1,4-benzodioxanyl-2-methyl)-4-methoxy-1,2,3,3a,8,8a-hexahydroindeno[1,2-c]pyrrole hydrochloride] | 992 |  | 
13 | Br.O=C(NCCN1CC2Cc3cccc(O)c3C2C1)c1ccc(F)cc1 (centres unmarked) [Example 19, 4-Hydroxy-2-(2-(4-fluorobenzamido)ethyl)-1,2,3,3a,8,8a-hexahydroindeno[1,2-c]pyrrole hydrobromide] | 262 | -9% at 30 mg/kg | 
14 | O=C1CC2(CCCC2)CC(=O)N1CCCN1CC2Cc3cccc(O)c3C2C1 (centres unmarked) [Example 27, 2-(3-(3,3-tetramethylene)glutarimidyl)propyl-4-hydroxy-1,2,3,3a,8,8a-hexahydroindeno[1,2-c]pyrrole hydrobromide] | 3320 |  | 
15 | COc1cccc2c1[C@H]1CCN(CCCN3C(=O)c4ccccc4S3(=O)=O)C[C@@H]1C2 (relative stereo) [Example 56, trans-2(3-(2-(1,2-benzisothiazolin-3-one-1,1-dioxyde))propyl)-5-methoxy-2,3,4,4a,9,9a-hexahydro-1 H-indeno[2,1-c]pyridine hydrochloride] | 22 |  | -18% at 10 mg/kg
16 | O=C1c2ccccc2S(=O)(=O)N1CCCCN1CC2Cc3cccc(O)c3C2C1 (centres unmarked) [Example 22, 4-Hydroxy-2-(4-(2-(1.2-benzisothiazolin-3-one-1,1-dioxide))butyl)-1,2,3,3a,8,8a-hexahydroindeno-[1,2-c]pyrrole hydrochloride] | 1090 | -16% at 30 mg/kg | 
17 | COc1cccc2c1C1CN(CCCCN3C(=O)c4ccccc4S3(=O)=O)CC1C2 (centres unmarked) [Example 21, 4-Methoxy-2-(4-(2-(1,2-benzisothiazolin-3-one1,1-dioxide))butyl)1,2,3,3a,8,8a-hexahydroindeno-[1,2-c]pyrrole hydrochloride] | 438 | -28% | -16%
18 | COc1cccc2c1C1CCN(CCCN3C(=O)CC4(CCCC4)CC3=O)CC1C2 (stereo not drawn) [Example 43, cis-2-(3-(3,3-tetramethylene)glutarimidyl)propyl-5-methoxy-2,3,4,4a,9,9a-hexahydro-1H-indeno[2,1-c] pyridine hydrochloride] | 3120 | -17.5% at 30 mg/kg | 
19 | COc1cccc2c1C1CCN(CCNC(=O)c3ccc(F)cc3)CC1C2 (stereo not drawn) [Example 58, trans-2-(2-(4-fluorobenzamido)ethyl)-5-methoxy-2,3,4,4a,9.9a-hexahydro-1H-indeno[2,1-c]pyridine hydrochloride] | 43 |  | -18% at 10 mg/kg
20 | COc1cccc2c1C1CN(CCCCN3C(=O)CC(C)(C)CC3=O)CC1C2 (centres unmarked) [Example 23, 2-(4-(3,3-dimethyl)glutarimidyl)butyl-4-methoxy-1,2,3,3a,8,8a-hexahydroindeno-[1,2-c]pyrrole hydrochloride] | 1730 | -12% at 30 mg/kg | 
21 | COc1cccc2c1C1CN(CCCCN3C(=O)C4C5C=CC(C6C=CC65)C4C3=O)CC1C2 (centres unmarked) [Example 54, 4-Methoxy-2-(4-(3a,4,4a,6a,7,7a-hexahydro-4,7-etheno-1H-cyclobut[flisoindol-1,3-dionyl)-butyl)-1,2,3,3a,8,8a-hexahydroindeno-[1,2-c]pyrrole hydrochloride] | 283 |  | 
22 | O=C1CC2(CCCC2)CC(=O)N1CCCCN1CC2Cc3cccc(O)c3C2C1 (centres unmarked) [Example 20, 2-(4-(3,3-tetramethylene)glutarimidyl)butyl-4-hydroxy-1,2,3,3a,8,8a-hexahydroindeno[1,2-c]pyrrole hydrobromide] | 1840 |  | 
23 | COc1cccc2c1C1CN(C/C=C\CN3C(=O)CC4(CCCC4)CC3=O)CC1C2 (stereo not drawn) [Example 29, 2-(4-(3,3-tetramethylene)glutarimidyl)-cis-but-2-enyl-4-methoxy-1,2,3,3a,8,8a-hexahydroindeno [1,2-c] pyrrole hydrochloride] | 3630 | -19% at 30 mg/kg | 
24 | COc1cccc2c1C1CN(CCCCN3C(=O)CC4(CCCC4)CC3=O)CC1C2 (centres unmarked) [Example 7, 2-(4-(3,3-tetramethylene)glutarimidyl)butyl-4-methoxy-1,2,3,3a,8,8a-hexahydoindeno[1,2-c]pyrrole hydrochloride] | 218 | -28% | -14%
